Data: patent US7968526B2, “Antisense oligonucleotides directed to ribonucleotide reductase R2 and uses thereof in the treatment of cancer” (Lorus Therapeutics Inc., priority 2003, dated 2011)
“Also recorded” adds a separate entry of the source.

Legend:
[1] = system: PC-3 human prostatic cancer cells; assay: PC-3 prostatic tumour xenograft in SCID mice, combination with mitoxantrone (1.4); format: in vivo, human cells in mice; conditions: PC-3, SCID mice; SEQ ID NO:1 10 mg/kg i.v. every other day 18 times; mitoxantrone 2 mg/kg i.v. once
Protocol: After 52 days the mice were sacrificed and the tumours weighed. […] In both experiments, PC-3 human prostatic cancer cells (1×10^7 cells in 100 μl of PBS) were subcutaneously injected into the right flank of 6-7 weeks old male SCID mice. After the size of tumour reached an approximate volume of 50 mm^3, 14 days post tumour cell injection, SEQ ID NO: 1 was administered by bolus infusion into the tail vein every other day at 10 mg/kg 18 times (FIG. 4A) or 17 times (FIG. 4B), respectively. Control animals received saline alone for the same period. Antitumour effect of SEQ ID NO:1 was further compared to that of mitoxantrone (novantrone) alone or in combination. Mitoxantrone was administered intravenously once at the beginning of the treatments at a dose of 2 mg/kg (FIG. 4A) or once a week for four weeks at a reduced dose of 0.8 mg/kg (FIG. 4B). All treatments were stopped at day 50 (FIG. 4A) or 48 (FIG. 4B), respectively. A day after the last treatment, tumours were excised from the animals and their weights were measured. […] In both experiments, DU145 human prostatic cancer cells (1×10^7 cells in 100 μl of PBS) were subcutaneously injected into the right flank of 6-7 weeks old male SCID mice. After the size of tumour reached an approximate volume of 50 mm^3, 13 (FIG. 5A) or 11 (FIG. 5B) days post tumour cell injection, SEQ ID NO:1 was administered by bolus infusion into the tail vein every other day at 10 mg/kg 15 times (FIG. 5A) or 14 times (FIG. 5B), respectively. Control animals received saline alone for the same period. Antitumour effect of SEQ ID NO:1 was further compared to that of mitoxantrone (novantrone) alone or in combination. Mitoxantrone was administered intravenously once at the beginning of the treatments at a dose of 2 mg/kg (FIG. 5A) or once a week for four weeks at a reduced dose of 0.8 mg/kg (FIG. 5B). All treatments were stopped at day 42 (FIG. 5A) or 38 (FIG. 5B), respectively. A day after the last treatment, tumours were excised from the animals and their weights were measured.

[2] = system: HT-29 human colon cancer cells; assay: HT-29 colon tumour growth in CD-1 nude mice, SEQ ID NO:1 alone (3.1); format: in vivo, human cells in mice
Protocol: Treatments lasted for 14 days thereafter. Antitumour activities were estimated by the inhibition of tumour volume, which was measured with a caliper on four different occasions over the treatment period. Each point represents mean tumour volume calculated from 5 animals per experimental group. […] Control animals (control) received saline alone for the same period. At the end of the treatments, the animals were sacrificed, tumours were excised and their weights were measured. Each bar represents mean tumour weight calculated from 6 animals per experimental group. […] Treatments lasted for 24 days thereafter. Antitumour activities were estimated by the inhibition of tumour volume, which was measured with a caliper at two-day intervals over the treatment period. Each point represents mean tumour volume calculated from 4 animals per experimental group. […] Treatments lasted for 24 days thereafter. Antitumour activities were estimated by the inhibition of tumour volume, which was measured with a caliper at two-day intervals over the treatment period. Each point represents mean tumour volume calculated from 4 animals per experimental group. […] Treatments lasted for 22 days thereafter. […] Each point represents mean tumour volume calculated from 5 animals per experimental group. […] Treatments lasted for 14 days thereafter. Antitumour activities were estimated by the inhibition of tumour volume, which was measured with a caliper on four different occasions over 16-day period. Each point represents mean tumour volume calculated from 5 animals per experimental group. […] Two different batches of SEQ ID NO:1, synthesized at different times (designated as batch 1 and batch 2), were tested to detect possible batch-specific effects. […] Treatments lasted for 34 days thereafter. Antitumour activities were estimated by the inhibition of tumour volume, which was measured with a caliper at two-day intervals over the treatment period. Each point represents mean tumour volume calculated from 5 animals per experimental group. […] Treatments lasted for 30 days thereafter. Antitumour activities were estimated by the inhibition of tumour volume, which was measured with a caliper at various time intervals over the span of 30 days. Each point represents mean tumour volume calculated from 6 animals per experimental group. […] All treatments were stopped at day 36. Antitumour activities were estimated by the inhibition of tumour volume, which was measured with a caliper. Each point represents mean tumour volume calculated from 5 animals per experimental group. […] All treatments were stopped at day 52. Mice treated with saline or one of the three chemotherapeutic agents were sacrificed at day 80 because the tumour became too large. Mice treated with SEQ ID NO:1 were kept for 16 days further to observe possible resurgence of resistant tumour growth. Antitumour activities were estimated by the inhibition of tumour volume, which was measured with a caliper.

[3] = system: R3 mouse fibrosarcoma cells; assay: R3 mouse fibrosarcoma tumour growth in C3H mice; format: in vivo
Protocol: Treatments lasted for 14 days thereafter. Anti-tumour activities were estimated by the inhibition of tumour volume, which was measured with a calliper at two-day intervals starting from day 9. Each point in FIG. 27A represents the mean tumour volume calculated from 6-7 animals per experimental group. […] SEQ ID NO:1 had significant anti-tumour activity compared to saline (P=0.0006), scrambled (P=0.0001) and mismatched (0.0002) controls.
At the end of the treatments, the animals were sacrificed, tumours were excised and their weights were measured. Each bar in FIG. 27C represents mean tumour weight and standard error calculated from 6-8 animals per experimental group. P values compared to saline were as follows: 0.5 mg/kg (P=0.04), 2 mg/kg (P=0.0001), 5 mg/kg (P=0.0015), 10 mg/kg (P=0.0001), 30 mg/kg (P=0.0001).

[4] = system: HT-29 human colon cancer cells; assay: HT-29 colon tumour xenograft in nude mice, combination with CPT-11 (1.2); format: in vivo, human cells in mice; conditions: SEQ ID NO:1 10 mg/kg i.v. every other day, CPT-11 20 mg/kg i.p. days 7-12
Description: All treatments were stopped at day 22. […] All treatments were stopped at day 32. […] All treatments were stopped at day 36.

[5] = system: A2058 human skin cancer cells; assay: A2058 melanoma growth in CD-1 nude mice (3.2); format: in vivo, human cells in mice
Protocol: Treatments lasted for 14 days thereafter. Antitumour activities were estimated by the inhibition of tumour volume, which was measured with a caliper on four different occasions over the treatment period. Each point represents mean tumour volume calculated from 5 animals per experimental group. […] Control animals (control) received saline alone for the same period. At the end of the treatments, the animals were sacrificed, tumours were excised and their weights were measured. Each bar represents mean tumour weight calculated from 6 animals per experimental group. […] Treatments lasted for 24 days thereafter. Antitumour activities were estimated by the inhibition of tumour volume, which was measured with a caliper at two-day intervals over the treatment period. Each point represents mean tumour volume calculated from 4 animals per experimental group. […] Treatments lasted for 24 days thereafter. Antitumour activities were estimated by the inhibition of tumour volume, which was measured with a caliper at two-day intervals over the treatment period. Each point represents mean tumour volume calculated from 4 animals per experimental group. […] Each point represents mean tumour volume calculated from 5 animals per experimental group. […] Antitumour activities were estimated by the inhibition of tumour volume, which was measured with a caliper on four different occasions over 16-day period. […]

## 5′-GGCTAAATCGCTCCACCAAG-3′ (all phosphorothioate, sugars by position and methylation of C not given here) [SEQ ID NO: 1, fully phosphorothioated antisense oligonucleotide that hybridizes to the coding region of R2 mRNA]
[1]
  Antitumour effect (tumour weight, FIG. 4A): significant delay of tumour growth compared to saline control
[2]; HT-29, CD-1 nude mice, 10 mg/kg i.v. every other day, 14 days
  Inhibitory effect on tumour growth (tumour volume, FIG. 17A): statistically significant inhibitory effects
[2]; HT-29, CD-1 nude mice, 0.4-6.0 mg/kg i.v. every other day for 14 days
  Inhibitory effect on tumour growth (tumour weight, FIG. 17B): statistically significant inhibitory effects on the growth of human colon adenocarcinoma in a dose-dependent manner
[2]; Human Colon Adenocarcinoma
  Inhibition of tumour weight: ~80%
[2]; Human Colon Adenocarcinoma in CD-1 nude mice, Day 18 after tumour implantation
  Inhibition of tumour size: approximately 80% on Day 18 after tumour
[2]; in vivo
  Dose dependence of tumour weight: Dose-dependent decrease in tumour weight in
[3]; Mouse Fibrosarcoma
  Inhibition of tumour weight: ~80%
[3]; Mouse Fibrosarcoma in C3H mice at doses of 0.5 to 30 mg/kg
  Dose dependence of tumour weight: Dose-dependent decrease in tumour weight in
[3]; Mouse Fibrosarcoma in C3H mice, Day 15 after tumour implantation
  Inhibition of tumour volume: approximately 80% on Day 15 after tumour laimpntation
[3]; R3, C3H mice, 5 mg/kg i.v. every other day, 14 days
  Anti-tumour efficacy (tumour volume, FIG. 27A): significant anti-tumour efficacy compared to saline, scrambled and mismatched controls
[3]; R3, C3H mice, 0.5-30 mg/kg
  Dose dependence of anti-tumour activity (FIG. 27C): dose-dependent anti-tumour activity
[4]; HT-29 (colon), CD-1
  Tumour weight as % of saline control: 19%
[4]; HT-29, CD-1 nude mice
  Antitumour effect (tumour weight, FIG. 2): significant delay of tumour growth compared to saline control; also recorded: superior to the inhibitory effects observed with CPT-11 alone
[5]; A2058, CD-1 nude mice, 10 mg/kg i.v. every other day, 24 days
  Inhibitory effect on tumour growth (tumour volume, FIG. 18A): strong inhibitory effects on the growth of human melanoma
[5]; Human Melanoma
  Inhibition of tumour weight: ~80%
